Several values for one entry are separate records, joined by “and”; a condition that tells them apart may be missing. Identical values can stand only once.
Key:
[1] = target: T1, P-gp (Homo sapiens, UniProt P08183); assay: LC-MS/MS intracellular accumulation assay with or without tariquidar (P-gp transport substrate test) in DU145-TXR cells; assay type: in vitro ADME; conditions: for P-gp transport substrate assessment / Intracellular accumulation (normalized ratio of compound to internal standard), Trial 1, + TQR / Intracellular accumulation (normalized ratio of compound to internal standard), Trial 2, + TQR / Intracellular accumulation (normalized ratio of compound to internal standard), Trial 1, - TQR / Intracellular accumulation (normalized ratio of compound to internal standard), Trial 2, - TQR: DU145-TXR, 2.5 h; for P-gp transport substrate assessment: 5 µM compound with or without 500 nM tariquidar, LC-MS/MS; for Intracellular accumulation (normalized ratio of compound to internal standard), Trial 1, + TQR / Intracellular accumulation (normalized ratio of compound to internal standard), Trial 2, + TQR / Intracellular accumulation (normalized ratio of compound to internal standard), Trial 1, - TQR / Intracellular accumulation (normalized ratio of compound to internal standard), Trial 2, - TQR: 5 µM compound, mean ± SD, triplicate; for Intracellular accumulation (normalized ratio of compound to internal standard), Trial 1, + TQR / Intracellular accumulation (normalized ratio of compound to internal standard), Trial 2, + TQR: with 500 nM tariquidar; for Intracellular accumulation (normalized ratio of compound to internal standard), Trial 1, - TQR / Intracellular accumulation (normalized ratio of compound to internal standard), Trial 2, - TQR: without tariquidar; for P (- TQR vs + TQR), Trial 1 / P (- TQR vs + TQR), Trial 2: Student's T test of the mean; for Significance of accumulation with tariquidar, Trial 1 / Significance of accumulation with tariquidar, Trial 2: significant difference = likely P-gp transport substrate
T1 construct: The MDR, P-gp overexpressing DU145-TXR cells were maintained under positive selection pressure; endogenous in cells; host or cells: DU145-TXR (paclitaxel-resistant sub-line of DU145 human prostate cancer cells)
Summary of the method: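 Analyte peak area normalised to internal standard and to lysate protein (BSA curve); relative accumulation compared between −/+ TQR by Student's t-test. Daunorubicin served as P-gp substrate positive control.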

[2] = tested on: A2780 cells; assay: MTT viability assay, parental A2780 cells, with or without PTX; assay type: cell-based, human; conditions: for Increase of PTX toxicity against parental A2780 cells: 15 µM compound with or without 500 nM PTX, 48 h, MTT; for Mean % Survival / % Survival (individual sample): A2780 cells; for Mean % Survival / viability at 15 µM: mean of 8 or 12 samples; for % Survival (individual sample): single samples; for viability at 15 µM: Homo sapiens, A2780, A2780 cells, read-out: Mean % Survival
Summary of the method: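 A2780 and doxorubicin-selected (100 nM) P-gp-overexpressing A2780-ADR cells, 3,000/well in RPMI + 10% FBS, were exposed to compounds, with or without chemotherapeutic, for 48 h at 37 °C. MTT read at 570 nm after 4 h; survival expressed as percent of vehicle, or vehicle-plus-chemotherapeutic, control.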

T1 sequence (P08183 whole entry): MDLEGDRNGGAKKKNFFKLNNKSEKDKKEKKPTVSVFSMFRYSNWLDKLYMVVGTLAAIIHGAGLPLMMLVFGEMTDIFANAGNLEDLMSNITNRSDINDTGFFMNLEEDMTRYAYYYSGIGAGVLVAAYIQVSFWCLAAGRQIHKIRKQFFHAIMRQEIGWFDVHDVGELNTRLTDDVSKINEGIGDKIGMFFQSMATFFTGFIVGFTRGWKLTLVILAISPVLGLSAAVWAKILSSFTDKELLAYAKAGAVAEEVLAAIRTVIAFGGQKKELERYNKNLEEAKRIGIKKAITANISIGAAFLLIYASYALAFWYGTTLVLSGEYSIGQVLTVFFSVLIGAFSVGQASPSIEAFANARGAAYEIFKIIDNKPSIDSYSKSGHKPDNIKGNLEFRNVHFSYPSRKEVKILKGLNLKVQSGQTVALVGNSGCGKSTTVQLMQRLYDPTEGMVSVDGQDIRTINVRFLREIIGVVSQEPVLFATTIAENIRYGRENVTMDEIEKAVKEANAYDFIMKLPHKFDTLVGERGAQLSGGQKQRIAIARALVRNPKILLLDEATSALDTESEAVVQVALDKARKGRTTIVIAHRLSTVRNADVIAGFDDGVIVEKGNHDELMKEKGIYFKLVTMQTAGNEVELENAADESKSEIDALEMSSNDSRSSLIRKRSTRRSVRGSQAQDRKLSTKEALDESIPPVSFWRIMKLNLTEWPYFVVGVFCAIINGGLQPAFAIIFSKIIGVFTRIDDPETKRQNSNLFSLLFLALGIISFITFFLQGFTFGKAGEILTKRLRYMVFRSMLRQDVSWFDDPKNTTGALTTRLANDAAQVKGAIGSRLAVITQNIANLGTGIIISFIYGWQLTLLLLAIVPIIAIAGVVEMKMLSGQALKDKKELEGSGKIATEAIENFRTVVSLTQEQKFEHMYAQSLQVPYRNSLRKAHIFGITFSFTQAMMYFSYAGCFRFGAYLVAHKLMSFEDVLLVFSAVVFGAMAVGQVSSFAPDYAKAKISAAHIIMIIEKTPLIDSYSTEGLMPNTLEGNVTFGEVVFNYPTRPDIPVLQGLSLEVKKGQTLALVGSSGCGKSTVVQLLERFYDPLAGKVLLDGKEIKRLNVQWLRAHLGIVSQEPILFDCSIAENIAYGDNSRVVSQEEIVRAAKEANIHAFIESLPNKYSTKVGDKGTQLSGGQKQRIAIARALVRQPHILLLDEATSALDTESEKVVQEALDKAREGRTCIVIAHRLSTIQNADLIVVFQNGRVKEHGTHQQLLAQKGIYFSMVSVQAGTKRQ

SMILES | P-gp transport substrate assessment [1] | Intracellular accumulation (normalized ratio of compound to internal standard), Trial 1, + TQR [1] | Intracellular accumulation (normalized ratio of compound to internal standard), Trial 2, + TQR [1] | Intracellular accumulation (normalized ratio of compound to internal standard), Trial 1, - TQR [1] | Intracellular accumulation (normalized ratio of compound to internal standard), Trial 2, - TQR [1] | P (- TQR vs + TQR), Trial 1 [1] | P (- TQR vs + TQR), Trial 2 [1] | Significance of accumulation with tariquidar, Trial 1 [1] | Significance of accumulation with tariquidar, Trial 2 [1] | Increase of PTX toxicity against parental A2780 cells [2] | Mean % Survival ([2]; 15 µM compound + 500 nM PTX) [%] | % Survival (individual sample) ([2]; 15 µM compound + 500 nM PTX) | % Survival (individual sample) ([2]; 15 µM compound alone) [%] | viability at 15 µM ([2]; 15 µM compound alone) [%]
Cc1onc(-c2ccccc2)c1-c1nnc(Cn2cnc3ccccc3c2=O)o1 [Compound 111, Cc1onc(c1-c1nnc(Cn2cnc3ccccc3c2=O)o1)-c1ccccc1] | unlikely to be transport substrates of P-gp | 0.013 ± 0.004 | 0.013 ± 0.001 | 0.012 ± 0.002 | 0.011 ± 0.002 | 0.7 | 0.2 | N.S. (P > 0.05 = not significant (N.S.)) | N.S. (P > 0.05 = not significant (N.S.)) | did not greatly increase the toxicity of PTX against the parental A2780 cells | 14.4 | 13% | 102 | 94
O=C(NCc1cccc(F)c1)c1nnn2c1Sc1c(C(=O)NCc3cccc(F)c3)nnn1CC2 [Compound 122, Fc1cccc(CNC(=O)c2nnn3CCn4nnc(C(=O)NCc5cccc(F)c5)c4Sc23)c1] | potential P-gp transport substrates | 0.146 ± 0.018 | 0.209 ± 0.014 | 0.049 ± 0.005 | 0.058 ± 0.018 | 0.0008 | 0.0003 | *** (P < 0.001 = ***) | *** (P < 0.001 = ***) | did not greatly increase the toxicity of PTX against the parental A2780 cells | 13.6 | 12% and 14% | – | 76.5
O=C(c1nc(-c2ccccn2)no1)N1CCN(c2nsc3ccccc23)CC1 [Compound 124, O=C(N1CCN(CC1)c1nsc2ccccc12)c1nc(no1)-c1ccccn1] | potential P-gp transport substrates | 0.061 ± 0.011 | 0.055 ± 0.009 | 0.006 ± 0.001 | 0.007 ± 0.002 | 0.001 | 0.0008 | ** (P < 0.01 = **) | *** (P < 0.001 = ***) | did not greatly increase the toxicity of PTX against the parental A2780 cells | 14.5 | 10% | 86 | 89.5

— PMC12349723, “Computationally accelerated identification of P-glycoprotein inhibitors” (PLOS One, 2025)
